# Legend:
# Assay type in all cases: in vivo, human
# [1] = Blood pressure, metabolic syndrome subjects; settings: metabolic syndrome subjects (Example 4), chromium products 400 mcg
# From the text: (§1) Patients included in the study, were of either gender, aged 30-68 years, having endothelial dysfunction defined as ≤6% change in reflection index (RI) on post salbutamol challenge test and central obesity as defined by The International Diabetes Federation guidelines, dated 2006, and any two of the following conditions:
# (§2) After screening, all the eligible subjects were randomized to receive either one of the three treatments orally for duration of 12 weeks: group 1—one capsule of Crominex®3+ 200 mcg once daily; group 2—one capsule 400 mcg once daily; group 3—one capsule of Placebo once daily.
# (§3) Subjects were reviewed for follow up at 4 weeks, 8 and 12 weeks of therapy. At each visit they were evaluated for efficacy and safety. Pharmacodynamic evaluation for endothelial function was conducted at baseline and end of treatment. Blood samples were collected for evaluation of biomarkers before and at end of treatment. Safety lab investigations for hematological, hepatic and renal biochemical parameters were conducted before and at the end of the study and also as and when required (in case of any adverse drug reaction (ADR)). Subjects were enquired for the presence of ADR and the same was recorded in the case report form. Compliance to therapy was assessed by pill count method.
# (§4) When the results with Crominex® 3+ in the above two examples were highly significant, especially with the 400 mcg once daily dose in type 2 diabetics, two more clinical studies (EXAMPLES 3 & 4) were conducted at the same institute, following the same methodology as described earlier, on the individual components of Crominex® 3+, i.e., chromium chloride and Phyllanthus emblica+Shilajit, and other chromium supplements available in the market, i.e., chromium picolinate, chromium polynicotinate and chromium dinicocysteinate, in type 2 diabetics as well as in subjects with metabolic syndrome symptoms.
# [2] = tested on: fasting plasma glucose; assay: Fasting plasma glucose, type 2 diabetics
# Description: as §4
# [3] = tested on: high sensitivity C-reactive protein (hsCRP); assay: hsCRP by ELISA, type 2 diabetics
# Description: (§5) The present clinical study is a prospective, randomized, double blind, placebo-controlled study. Patients of either sex, aged 30-65 years, fasting plasma glucose of 110-126 mg/dl, a glycosylated hemoglobin (HbA1c) between 6.5% and 8% and taking stable dose of anti-diabetic treatment (metformin 1500-2000 mg/day) for the past 8 weeks prior to the screening visit; and having endothelial dysfunction defined as ≤6% change in reflection index (RI) on post salbutamol challenge test were included in the study. Patients with severe uncontrolled hyperglyceamia, uncontrolled hypertension, cardiac arrhythmia, impaired hepatic or renal function, history of malignancy or stroke, smoking, chronic alcoholism, any other serious disease requiring active treatment and treatment with any other herbal supplements, were excluded from the study.
# (§6) After screening, all the eligible subjects were randomized to receive either one of the three treatments orally for duration of 12 weeks—Group1—one capsule of Crominex®3+, 200 mcg once daily, Group 2—one capsule Crominex®3+, 400 mcg once daily; Group 3—one capsule of placebo once daily.
# as §3, with “Subjects were required for follow” for “Subjects were reviewed for follow”, “up at 4, 8 and” for “up at 4 weeks, 8 and”, “conducted at every visit. Blood samples” for “conducted at baseline and end of treatment. Blood samples”, “and at the end of” for “and at end of”, “drug reaction (ADR). Subjects were” for “drug reaction (ADR)). Subjects were”
# Nitric oxide, MDA, Glutathione and levels were estimated spectrophotometrically as follows. Malondialdehyde (MDA) levels were determined as described in Vidyasagar, et al., “Oxidative stress and antioxidant status in acute organophosphorous insecticide poisoning,” Indian J. Pharmacol. (April 2004) 36(2): 76-79. Glutathione levels were determined as described in G. L. Ellman, Arch. Biochem. Biophys. (1959) 82: 70-77 (original determination). Nitric oxide levels were estimated spectrophotometrically as described in Miranda, et al., “A Rapid, Simple Spectrophotometric Method for Simultaneous Detection of Nitrate and Nitrite,” NITRIC OXIDE: Biology and Chemistry (2001) Vol. 5, No. 1, pp. 62-71. hsCRP (high sensitivity C-reactive protein) was determined by ELISA method.
# as §4
# [4] = tested on: fasting plasma glucose; assay: Fasting plasma glucose, metabolic syndrome subjects
# From the text: as §1, §2, §3, §4
# [5] = tested on: Glycosylated Hemoglobin A1c (HbA1c); assay: Glycosylated hemoglobin A1c, type 2 diabetics
# Description: as §5, §6
# as §3, with “Subjects were required for follow” for “Subjects were reviewed for follow”, “up at 4, 8 and” for “up at 4 weeks, 8 and”, “conducted at every visit. Blood samples” for “conducted at baseline and end of treatment. Blood samples”, “and at the end of” for “and at end of”, “drug reaction (ADR). Subjects were” for “drug reaction (ADR)). Subjects were”
# (§7) All the subjects had undergone complete physical examination, safety lab evaluations at baseline and at the end of the treatment. Samples were collected after an overnight fast of 12 hrs after the last dose of medication for determination of hemoglobin, glycosylated hemoglobin (HbA1c), blood urea, serum creatinine, liver function, lipid profile (Total cholesterol, High density lipoprotein cholesterol (HDL-C), low density lipoprotein cholesterol (LDL-C) using appropriate standard techniques.
# as §4
# [6] = tested on: lipid profile; assay: Lipid profile (TC, HDL-C, LDL-C, TG, VLDL-C), type 2 diabetics
# Description: as §5, §6
# as §3, with “Subjects were required for follow” for “Subjects were reviewed for follow”, “up at 4, 8 and” for “up at 4 weeks, 8 and”, “conducted at every visit. Blood samples” for “conducted at baseline and end of treatment. Blood samples”, “and at the end of” for “and at end of”, “drug reaction (ADR). Subjects were” for “drug reaction (ADR)). Subjects were”
# as §7, §4
# [7] = tested on: lipid profile; assay: Lipid profile (TC, HDL-C, LDL-C, TG), metabolic syndrome subjects
# From the text: as §7
# Patients included in the study, were of either gender, aged 30-68 years, having endothelial dysfunction defined as ≤6% change in reflection index (RI) on post salbutamol challenge test and central obesity as defined by The International Diabetes Federation guidelines, dated 2006, and any two of the following conditions: […]
# as §3
# Assessment of endothelial function, biomarkers, safety parameters and primary and secondary efficacy parameters and data analysis were performed as described under the study with type 2 diabetic subjects in Example 1.
# as §4
# [8] = type 2 diabetics (Example 3), chromium products 400 mcg, post-treatment, 12 weeks
# [9] = type 2 diabetics (Example 3), chromium products 400 mcg, pre-treatment
# [10] = metabolic syndrome subjects (Example 4), chromium products 400 mcg, after 12 weeks of treatment
# [11] = metabolic syndrome subjects (Example 4), chromium products 400 mcg, pre-treatment
# [12] = type 2 diabetics (Example 3), chromium products 400 mcg, 12 weeks of treatment
substance,measurement,setting,value
chromium dinicocysteinate,Diastolic blood pressure Post Tt,[1]; after 12 weeks of treatment,78.8 ± 2.67 NS mmHg
same,Systolic blood pressure Post Tt,[1]; after 12 weeks of treatment,122.0 ± 2.66 NS mmHg
same,Diastolic blood pressure Pre Tt,[1]; pre-treatment,80.0 ± 2.99 mmHg
same,Systolic blood pressure Pre Tt,[1]; pre-treatment,124.8 ± 3.37 mmHg
same,Fasting Glucose,"[2]; DM, 400 mcg",−3.2%
same,Fasting Plasma Glucose Post Tt,[2]; [8],132.3 ± 4.41 $ mg/dL
same,Fasting Plasma Glucose Pre Tt,[2]; [9],136.8 ± 6.99^ mg/dL
same,hsCRP,"[3]; DM, 400 mcg",−8.61%
same,Mean percentage change in hsCRP,"[3]; type 2 diabetics (Example 3), chromium products 400 mcg, 12 week treatment",−8.61 ± 12.40 #@NS %
same,hsCRP Post Tt,[3]; [8],2.56 ± 0.58 @ mg/L
same,hsCRP Pre Tt,[3]; [9],2.79 ± 0.53 mg/L
same,Fasting Glucose,"[4]; MS, 400 mcg",−2.18%
same,Fasting Plasma Glucose Post Tt,[4]; [10],99.50 ± 17.60 NS
same,Fasting Plasma Glucose Pre Tt,[4]; [11],101.72 ± 21.41
same,HbA1c (Abs.),"[5]; DM, 400 mcg, absolute change",−0.01
same,Absolute change in HbA1c,"[5]; type 2 diabetics (Example 3), chromium products 400 mcg, after 12 weeks treatment",−0.01 ± 0.07 #NS %
same,HbA1c Post Tt,[5]; [8],7.10 ± 0.08 NS %
same,HbA1c Pre Tt,[5]; [9],7.11 ± 0.08%
same,HDL,"[6]; DM, 400 mcg",1.19%
same,LDL,"[6]; DM, 400 mcg",−0.81%
same,TC,"[6]; DM, 400 mcg",−0.38%
same,TG,"[6]; DM, 400 mcg",−0.37%
same,Mean percentage change in HDL-C,[6]; [12],1.19 ± 4.01 NS %
same,Mean percentage change in LDL-C,[6]; [12],−0.81 ± 1.52 $NS %
same,Mean percentage change in Total Cholesterol,[6]; [12],−0.38 ± 0.86 #NS %
same,Mean percentage change in Triglycerides,[6]; [12],−0.37 ± 0.92 NS %
same,HDL-C Post Tt,[6]; [8],37.83 ± 2.90 NS mg/dl
same,LDL-C Post Tt,[6]; [8],128.91 ± 16.46 $^ mg/dl
same,Total Cholesterol Post Tt,[6]; [8],201.28 ± 17.29 NS mg/dl
same,Triglycerides Post Tt,[6]; [8],172.67 ± 3.88 NS mg/dl
same,HDL-C Pre Tt,[6]; [9],37.39 ± 2.43 mg/dL
same,LDL-C Pre Tt,[6]; [9],130.00 ± 16.71 mg/dL
same,Total Cholesterol Pre Tt,[6]; [9],202.06 ± 17.48 mg/dL
same,Triglycerides Pre Tt,[6]; [9],173.33 ± 4.83 mg/dL
same,HDL,"[7]; MS, 400 mcg",−0.71%
same,LDL,"[7]; MS, 400 mcg",2.11%
same,TC,"[7]; MS, 400 mcg",1.4%
same,TG,"[7]; MS, 400 mcg",1.04%
same,"LDL-C, mean percentage change","[7]; mean percentage change after 12 weeks of treatment, 400 mcg, Example 4",2.11%
same,HDL-C Post Tt,[7]; [10],36.61 ± 5.67 NS mg/dl
same,LDL-C Post Tt,[7]; [10],113.64 ± 14.96 mg/dL
same,Mean percentage change in HDL-C,[7]; [10],−0.71 ± 3.95%
same,Mean percentage change in Total Cholesterol,[7]; [10],1.40 ± 1.03%
same,Mean percentage change in Triglycerides,[7]; [10],1.04 ± 1.06%
same,Total Cholesterol Post Tt,[7]; [10],184.50 ± 12.49 mg/dL
same,Triglycerides Post Tt,[7]; [10],171.22 ± 6.92 mg/dL
same,HDL-C Pre Tt,[7]; [11],36.83 ± 5.22 mg/dL
same,LDL-C Pre Tt,[7]; [11],111.22 ± 14.34 mg/dL
same,Total Cholesterol Pre Tt,[7]; [11],181.94 ± 12.10 mg/dL
same,Triglycerides Pre Tt,[7]; [11],169.44 ± 6.24 mg/dL

# Source: US10183047B2, “Chromium-containing compositions in combination with Phyllanthus emblica and shilajit having synergistic effects for improving endothelial function and cardiovascular health” (Natreon, Inc., priority 2014, dated 2019)
